Data taken from patent US10202371B2, “Oxazolidin-2-one-pyrimidine derivatives and the use thereof as phosphatidylinositol-3-kinase inhibitors” (Novartis AG, priority 2012, dated 2019).

These molecules were tested against human PI3Kα (Homo sapiens (Human), UniProt P42336) (assay: Biochemical assay PI3Kalpha (KinaseGlo luminescence)). Conditions: 1 μM ATP.
Sequence of human PI3Kα (P42336 21-1068): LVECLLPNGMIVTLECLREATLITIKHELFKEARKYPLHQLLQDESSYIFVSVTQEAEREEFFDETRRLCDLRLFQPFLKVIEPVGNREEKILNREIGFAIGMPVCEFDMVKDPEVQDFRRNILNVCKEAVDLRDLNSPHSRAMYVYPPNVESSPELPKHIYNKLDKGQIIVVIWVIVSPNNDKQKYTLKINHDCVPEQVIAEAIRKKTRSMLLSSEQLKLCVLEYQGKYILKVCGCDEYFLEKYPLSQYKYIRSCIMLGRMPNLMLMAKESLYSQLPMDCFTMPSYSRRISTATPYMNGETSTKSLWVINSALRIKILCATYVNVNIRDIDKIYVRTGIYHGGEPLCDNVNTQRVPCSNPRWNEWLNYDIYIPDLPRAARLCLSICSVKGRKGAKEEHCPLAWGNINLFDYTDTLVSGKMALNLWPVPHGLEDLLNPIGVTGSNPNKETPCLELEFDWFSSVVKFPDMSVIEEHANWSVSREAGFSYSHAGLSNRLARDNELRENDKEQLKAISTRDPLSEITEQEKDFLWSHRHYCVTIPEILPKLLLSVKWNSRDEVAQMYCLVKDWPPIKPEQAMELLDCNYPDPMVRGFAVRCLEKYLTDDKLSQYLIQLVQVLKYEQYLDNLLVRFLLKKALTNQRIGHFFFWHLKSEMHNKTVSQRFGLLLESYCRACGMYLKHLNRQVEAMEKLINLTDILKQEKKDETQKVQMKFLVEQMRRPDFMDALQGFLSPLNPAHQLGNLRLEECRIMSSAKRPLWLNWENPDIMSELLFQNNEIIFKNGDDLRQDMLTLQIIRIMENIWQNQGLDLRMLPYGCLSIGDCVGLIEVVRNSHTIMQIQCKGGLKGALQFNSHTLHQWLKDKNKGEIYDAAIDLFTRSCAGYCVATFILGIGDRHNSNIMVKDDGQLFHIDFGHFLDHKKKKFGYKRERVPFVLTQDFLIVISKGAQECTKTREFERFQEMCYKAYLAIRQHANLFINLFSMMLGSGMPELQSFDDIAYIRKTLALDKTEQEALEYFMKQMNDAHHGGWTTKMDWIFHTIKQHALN
Source text: Cancer Ther. accepted). […] (L-alpha-phosphatidylinositol (PI), Liver, Bovine) were obtained from Avanti Polar Lipid (Cat. […] (Avanti, Cat. No. 840046X) or L-α-phosphatidylinositol (PI) was obtained from Avanti Polar Lipid (Cat. […] Luminescence is a well established readout to determine ATP concentrations and can thus be used to follow the activity of many kinases regardless of their substrate. The Kinase Glo Luminescent Kinase Assay (Promega, Madison/WI, USA) is a homogeneous HTS method of measuring kinase activity by quantifying the amount of ATP remaining in solution following a kinase reaction. 50 nL of compound dilutions were dispensed onto black 384-well low volume Non Binding Styrene (NBS) plates (Costar Cat. No. […] L-α-phosphatidylinositol (PI), provided as 10 mg/ml solution in methanol, was transferred into a glass tube and dried under nitrogen beam. […] NVP-BGT226 was used as a reference compound and included in all assay plates in the form of 16 dilution points in duplicate. […] All fits were performed with the program XLfit4 (ID Business Solutions, Guildford, UK).
In the case of `Nc1ncc(-c2cc(N3C(=O)O[C@@H](c4ccccc4)[C@@H]3CO)nc(N3CCOCC3)n2)c(C(F)(F)F)n1` [Example 10], the PI3Ka/IC50 is reported as 0.009 umol I-1.

These molecules were tested against human PI3Kbeta p110 catalytic subunit (Rat-1 cells) (Homo sapiens (Human), UniProt P42338) (assay: Cellular assay PI3Kbeta, p-Akt(S473) SureFire in Rat-1_PI3Kbeta cells). Conditions: p-AKT(Ser473), 1 h treatment; read-out: Rat1-PI3Kb/IC50.
Sequence of human PI3Kbeta p110 catalytic subunit (Rat-1 cells) (P42338 whole entry): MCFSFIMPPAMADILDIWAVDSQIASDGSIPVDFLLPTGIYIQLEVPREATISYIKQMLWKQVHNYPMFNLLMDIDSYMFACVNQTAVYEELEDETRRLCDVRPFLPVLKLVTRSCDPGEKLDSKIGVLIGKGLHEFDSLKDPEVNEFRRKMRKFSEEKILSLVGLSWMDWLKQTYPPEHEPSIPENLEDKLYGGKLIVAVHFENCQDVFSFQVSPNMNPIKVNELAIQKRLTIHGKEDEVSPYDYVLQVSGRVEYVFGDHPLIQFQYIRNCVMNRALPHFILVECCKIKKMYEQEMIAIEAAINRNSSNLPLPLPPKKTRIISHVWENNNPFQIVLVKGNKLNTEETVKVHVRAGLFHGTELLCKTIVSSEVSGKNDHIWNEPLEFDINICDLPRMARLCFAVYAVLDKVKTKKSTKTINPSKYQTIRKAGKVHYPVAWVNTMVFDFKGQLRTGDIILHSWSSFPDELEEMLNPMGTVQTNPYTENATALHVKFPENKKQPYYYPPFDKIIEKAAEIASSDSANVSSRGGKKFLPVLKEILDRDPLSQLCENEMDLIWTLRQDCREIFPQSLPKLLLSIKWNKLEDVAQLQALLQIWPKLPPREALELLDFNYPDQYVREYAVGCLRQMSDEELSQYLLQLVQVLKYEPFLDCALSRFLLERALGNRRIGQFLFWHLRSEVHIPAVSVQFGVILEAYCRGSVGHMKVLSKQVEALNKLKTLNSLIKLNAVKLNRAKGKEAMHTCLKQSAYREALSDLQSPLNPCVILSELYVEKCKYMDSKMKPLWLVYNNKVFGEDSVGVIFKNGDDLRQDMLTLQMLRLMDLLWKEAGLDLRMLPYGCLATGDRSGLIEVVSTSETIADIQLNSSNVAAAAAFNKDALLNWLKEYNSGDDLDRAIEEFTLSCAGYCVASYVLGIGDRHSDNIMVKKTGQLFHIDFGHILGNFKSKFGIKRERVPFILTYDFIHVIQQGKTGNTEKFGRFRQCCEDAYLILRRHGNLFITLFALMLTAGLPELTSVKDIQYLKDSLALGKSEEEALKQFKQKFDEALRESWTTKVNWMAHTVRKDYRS
Sequence of human PI3Kbeta p110 catalytic subunit (Rat-1 cells) (Q63787 whole entry partner): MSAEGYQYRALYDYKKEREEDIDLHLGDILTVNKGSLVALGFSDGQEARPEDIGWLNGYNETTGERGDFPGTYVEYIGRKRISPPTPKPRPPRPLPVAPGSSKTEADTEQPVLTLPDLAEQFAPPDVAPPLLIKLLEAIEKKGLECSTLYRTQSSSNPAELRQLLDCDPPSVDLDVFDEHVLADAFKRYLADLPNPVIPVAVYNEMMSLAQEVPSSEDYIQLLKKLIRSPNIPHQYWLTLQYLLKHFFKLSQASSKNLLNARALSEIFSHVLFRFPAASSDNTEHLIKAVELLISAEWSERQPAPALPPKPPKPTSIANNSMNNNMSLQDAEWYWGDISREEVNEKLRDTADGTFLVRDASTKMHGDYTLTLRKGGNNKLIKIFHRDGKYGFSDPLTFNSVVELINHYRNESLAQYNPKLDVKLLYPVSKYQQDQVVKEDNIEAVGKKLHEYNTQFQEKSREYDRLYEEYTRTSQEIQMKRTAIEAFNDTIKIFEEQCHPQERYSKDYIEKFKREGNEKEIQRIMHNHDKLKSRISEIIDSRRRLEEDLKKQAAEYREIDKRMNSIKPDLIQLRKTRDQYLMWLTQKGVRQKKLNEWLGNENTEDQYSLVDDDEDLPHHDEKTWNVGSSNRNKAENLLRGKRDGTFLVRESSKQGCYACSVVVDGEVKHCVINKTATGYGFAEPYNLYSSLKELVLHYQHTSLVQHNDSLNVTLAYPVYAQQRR
Format: cell-based
Source text: AlphaScreen (Amplified Luminescent Proximity Homogeneous Assay, ALPHA, Perkin Elmer) is a non-radioactive bead-based proximity assay technology to study biomolecular interactions in a homogenous microtiter plate format. The brand name SureFire denotes AlphaScreen assays that are adapted to quantify the phosphorylation of endogenous cellular proteins in cell lysates, by using matched antibody pairs, which consist of an anti-phospho-kinase and an anti-kinase antibody. The assay allows characterization of kinase signaling in cells as well as measurement of kinase inhibitor effects. The AlphaScreen technology provides several advantages over standard assay techniques such as ELISA, as it avoids time-consuming washing procedures and reduces plate handling. Furthermore, it is miniaturizable at least to a 384-well format and provides sensitivity down to the femtomolar range, dependent on the affinity of the antibodies included in the individual AlphaScreen SureFire assay kit. High sensitivity is reached by an intrinsic amplification mechanism, which involves production of singlet oxygen molecules. SureFire assay kits are commercially available for specific targets and include pairs of validated antibodies (PerkinElmer). This report describes common procedures applied for AlphaScreen SureFire assays and respective semi-automated steps for routine kinase inhibitor profiling in cell-based assays.
The Rat-1 cell lines stably overexpressing activated PI3K class I isoforms Rat-1 pBABEpuro Myr-HA-hp110 delta (Rat-1_PI3Kdelta) and Rat-1 pBABEpuro Myr-HA-hp110alpha (Rat-1_PI3Kalpha) and Rat-1 pBABEpuro Myr-HA-hp110 beta (Rat-1_PI3beta) were prepared as described (Maira S M, Stauffer F, Brueggen J, Furet P, Schnell C, Fritsch C, Brachmann S, Chène P, de Pover A, Schoemaker K, Fabbro D, Gabriel D, Simonen M, Murphy L, Finan P, Sellers W, Garcia-Echeverria C (2008), Mol Cancer Ther. 7:1851-63 and Maira S M, Pecchi S, Brueggen J, Huh K, Schnell C, Fritsch C, Nagel T, Wiesmann M, Brachmann S, Dorsch M, Chène P, Schoemaker K, De Pover A, Menezes D, Fabbro D, Sellers W, Garcia-Echeverria C, Voliva CF (2011), Mol. Cancer Ther., accepted). All cell lines were cultivated in complete growth medium (DMEM high glucose, 10% (v/v) fetal bovine serum, 1% (v/v) MEM NEAA, 10 mM HEPES, 2 mM L-glutamine, puromycin (10 μg/mL for Rat-1_PI3Kdelta and Rat-1_PI3Kalpha, 4 ug/mL for Rat-1_PI3beta), 1% (v/v) Pen/Strep) to 90% confluency at 37° C./5% CO2/90% humidity in a humidified CO2 incubator and were split twice a week. […]
In the case of `CCC1C(c2cccnc2)OC(=O)N1c1cc(-c2cnc(N)nc2C(F)(F)F)nc(N2CCOCC2)n1` (stereo not drawn) [Example 8], the IC50 is reported as 26 nM. In the case of `COc1ccc([C@@H]2OC(=O)N(c3cc(-c4cnc(N)nc4C(F)(F)F)nc(N4CCOCC4)n3)[C@H]2CO)cc1` [Example 3, (4S,5S)-3-(2′-Amino-2-morpholino-4′-(trifluoromethyl)-[4,5′-bipyrimidin]-6-yl)-4-(hydroxymethyl)-5-(4-methoxyphenyl)oxazolidin-2-one], the IC50 is reported as 33 nM. `Nc1ncc(-c2cc(N3C(=O)O[C@@H](c4ccccc4)[C@@H]3CO)nc(N3CCOCC3)n2)c(C(F)(F)F)n1` [Example 10] showed an IC50 of 23 nM. With `CC[C@H]1[C@H](c2ccc(OC)cc2)OC(=O)N1c1cc(-c2cnc(N)nc2C(F)(F)F)nc(N2CCOCC2)n1` (relative stereo) [Example 2, (4S*,5S*)-3-(2′-amino-2-morpholino-4′-(trifluoromethyl)-[4,5′-bipyrimidin]-6-yl)-4-ethyl-5-(4-methoxyphenyl)oxazolidin-2-one] the IC50 was 751 nM. In the case of `C[C@H]1[C@@H](c2nccs2)OC(=O)N1c1cc(-c2cnc(N)nc2C(F)(F)F)nc(N2CCOCC2)n1` [Example 11], the IC50 is reported as 26 nM.
